This note sets out measurements from US6620839B2, “1,3-disubstituted and 1,3,3-trisubstituted pyrrolidines as histamine-3 receptor ligands and their therapeutic applications” (Abbott Laboratories, priority 2000, dated 2003).

Structures are written as SMILES.

For this assay, the target named is T1, histamine-3 receptor (Rattus norvegicus, UniProt Q9QYN8).
T1 construct: from tissue; host or cells: male Sprague-Dawley rat brain cortex membranes
T1 sequence (Q9QYN8 whole entry): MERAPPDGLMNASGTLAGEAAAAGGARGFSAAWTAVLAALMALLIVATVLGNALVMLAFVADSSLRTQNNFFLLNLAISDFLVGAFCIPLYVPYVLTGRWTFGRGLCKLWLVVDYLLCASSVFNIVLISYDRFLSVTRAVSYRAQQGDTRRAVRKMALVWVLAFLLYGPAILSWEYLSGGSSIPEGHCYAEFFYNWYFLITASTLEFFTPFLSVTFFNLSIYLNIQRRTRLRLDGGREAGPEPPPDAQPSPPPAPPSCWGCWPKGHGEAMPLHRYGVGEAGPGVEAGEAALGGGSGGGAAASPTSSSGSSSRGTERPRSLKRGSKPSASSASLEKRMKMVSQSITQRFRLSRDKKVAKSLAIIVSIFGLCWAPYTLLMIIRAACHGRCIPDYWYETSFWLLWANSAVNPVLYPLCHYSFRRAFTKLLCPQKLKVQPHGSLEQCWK
Put plainly: Histamine-3 receptor binding, (3H)-N-α-methylhistamine displacement in rat cortical membranes. As to conditions: male Sprague-Dawley rat brain cortical membranes; (3H)-N-α-methylhistamine ~0.6 nM; 30 minutes at 25° C.; Cheng-Prusoff. Put shortly: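 Male Sprague-Dawley rat cortical membranes incubated 30 min at 25 °C with compound dilutions and [3H]-N-α-methylhistamine. Nonspecific binding defined with 3 μM thioperamide. Filtration and scintillation counting used; Ki from Hill transformation and Cheng-Prusoff equation.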
Compound `O=C(c1ccc(OCCCN2CC[C@@H](NS(=O)(=O)c3ccc(OC(F)(F)F)cc3)C2)cc1)C1CC1` [Example 94, N-((3R)-1-{3-[4-(cyclopropylcarbonyl)phenoxy]propyl}pyrrolidinyl)-4-(trifluoromethoxy)benzenesulfonamide] returned a Ki of 4.9 nM. The same measure for `O=C(c1ccc(OCCCN2CC[C@@H](NS(=O)(=O)c3cccc4ccncc34)C2)cc1)C1CC1` [Example 95, N-((3R)-1-{3-[4-(cyclopropylcarbonyl)phenoxy]propyl}pyrrolidinyl)-8-isoquinolinesulfonamide]: 4.6 nM; for `CC(=O)Nc1ccc(S(=O)(=O)N[C@@H]2CCN(CCCOc3ccc(C(=O)C4CC4)cc3)C2)cc1Cl` [Example 96, N-(2-chloro-4-{[((3R)-1-{3-[4-(cyclopropylcarbonyl)phenoxy]propyl}pyrrolidinyl)amino]sulfonyl}phenyl)acetamide]: 1.2 nM; for `O=C(c1ccc(OCCCN2CC[C@@H](NS(=O)(=O)c3ccc(Cl)c(Cl)c3)C2)cc1)C1CC1` [Example 97, 3,4-dichloro-N-((3R)-1-{3-[4-(cyclopropylcarbonyl)phenoxy]propyl}pyrrolidinyl)benzenesulfonamide]: 6.7 nM. The same measure for `CC(C)(C)OC(=O)N[C@H]1CCN(CCOc2ccc(-c3ccc(C#N)cc3)cc2)C1` [Example 100, tert-butyl (3S)-1-{2-[(4′-cyano[1,1′-biphenyl]-4-yl)oxy]ethyl}pyrrolidinylcarbamate]: 1630 nM; for `COc1ccc(S(=O)(=O)N[C@@H]2CCN(CCCOc3ccc(-c4ccccn4)cc3)C2)cc1` [Example 101, 4-methoxy-N-((3R)-1-{3-[4-(2-pyridinyl)phenoxy]propyl}pyrrolidinyl)benzenesulfonamide]: 179 nM. The same measure for `CC(C)c1ccc(S(=O)(=O)N[C@@H]2CCN(CCCOc3ccc(-c4ccccn4)cc3)C2)cc1` [Example 102, 4-isopropyl-N-((3R)-1-{3-[4-(2-pyridinyl)phenoxy]propyl}pyrrolidinyl)benzenesulfonamide]: 112 nM; for `N#Cc1ccc(S(=O)(=O)N[C@@H]2CCN(CCCOc3ccc(-c4ccccn4)cc3)C2)cc1` [Example 103, 4-cyano-N-((3R)-1-{3-[4-(2-pyridinyl)phenoxy]propyl}pyrrolidinyl)benzenesulfonamide]: 195 nM; for `N#Cc1cccc(S(=O)(=O)N[C@@H]2CCN(CCCOc3ccc(-c4ccccn4)cc3)C2)c1` [Example 104, 3-cyano-N-((3R)-1-{3-[4-(2-pyridinyl)phenoxy]propyl}pyrrolidinyl)benzenesulfonamide]: 173 nM. Turning to `Cn1cnc(S(=O)(=O)N[C@@H]2CCN(CCCOc3ccc(-c4ccccn4)cc3)C2)c1` [Example 105, 1-methyl-N-((3R)-1-{3-[4-(2-pyridinyl)phenoxy]propyl}pyrrolidinyl)-1 H-imidazole-4-sulfonamide], the affinity corresponds to a Ki of 725 nM. On to `COc1ccc(S(=O)(=O)N[C@@H]2CCN(CCCOc3ccc(-c4ccccn4)cc3)C2)cc1OC` [Example 106, 3,4-dimethoxy-N-((3R)-1-{3-[4-(2-pyridinyl)phenoxy]propyl}pyrrolidinyl)benzenesulfonamide], for which affinity was put at a Ki of 168 nM. Next, `CC(=O)Nc1ccc(S(=O)(=O)N[C@@H]2CCN(CCCOc3ccc(-c4ccccn4)cc3)C2)cc1Cl` [Example 107]: 200 nM; `CN(C(=O)OC(C)(C)C)[C@@H]1CCN(CCCOc2ccc(-c3ccc(C#N)cc3)cc2)C1` [Example 109, tert-butyl (3R)-1-{3-[(4′-cyano[1,1′-biphenyl]-4-yl)oxy]propyl}pyrrolidinyl(methyl)carbamate]: 26 nM. As to `CC(=O)N(C)[C@@H]1CCN(CCCOc2ccc(-c3ccc(C#N)cc3)cc2)C1` [Example 111], affinity was put at a Ki of 11 nM. Next, `CN(C(=O)CC(C)(C)C)[C@@H]1CCN(CCCOc2ccc(-c3ccc(C#N)cc3)cc2)C1` [Example 112]: 13 nM.

The Ki is a measure of affinity in units of concentration, obtained from inhibition or displacement.
